{
  "source": "ChEMBL document CHEMBL2331172",
  "about": "“Pyrrole and furan oligoglycosides from the starfish Asterina batheri and their inhibitory effect on the production of pro-inflammatory cytokines in lipopolysaccharide-stimulated bone marrow-derived dendritic cells” (Bioorg Med Chem Lett, 2013)",
  "conditions_in_all_cases": "bmdc",
  "key": {"[1]": {"assay": "Antiinflammatory activity in wild-type C57BL/6 mouse BMDCs assessed as inhibition of TNFalpha production incubated for 1 hr prior to LPS challenge measured after 16 hrs by ELISA", "format": "functional"}, "[2]": {"assay": "Antiinflammatory activity in wild-type C57BL/6 mouse BMDCs assessed as inhibition of IL-6 production incubated for 1 hr prior to LPS challenge measured after 16 hrs by ELISA", "format": "functional"}, "[3]": {"assay": "Cytotoxicity against wild-type C57BL/6 mouse BMDCs assessed as cell viability by MTT assay"}, "[4]": {"assay": "Antiinflammatory activity in wild-type C57BL/6 mouse BMDCs assessed as inhibition of IL-12 p40 production incubated for 1 hr prior to LPS challenge measured after 16 hrs by ELISA", "format": "functional"}},
  "data": [
    {"smiles": "CC(=O)c1[nH]ccc1O[C@@H]1O[C@H](C)[C@@H](O[C@@H]2O[C@H](C)[C@H](O)[C@H](O[C@@H]3O[C@H](C)[C@H](O)[C@H](O)[C@H]3O)[C@H]2O)[C@H](O)[C@H]1O[C@@H]1O[C@H](C)[C@@H](O)[C@H](O)[C@H]1O", "values": [
      {"measurement": "IC50", "setting": "[1]", "value": "> 50", "unit": "µM"},
      {"measurement": "IC50", "setting": "[2]", "value": "> 50", "unit": "µM"},
      {"measurement": "Activity", "setting": "[3]", "value": "Non-toxic"},
      {"measurement": "IC50", "setting": "[4]", "value": "> 50", "unit": "µM"}
    ]},
    {"smiles": "CC(=O)c1[nH]ccc1O[C@@H]1O[C@H](C)[C@@H](O[C@@H]2O[C@H](C)[C@H](O)[C@H](O[C@@H]3O[C@H](C)[C@H](O)[C@H](O[C@@H]4O[C@@H](CO)[C@H](O)[C@H]4O)[C@H]3O)[C@H]2O)[C@H](O)[C@H]1O[C@@H]1O[C@H](C)[C@@H](O)[C@H](O)[C@H]1O", "note": "[ASTEBATHERIOSIDE A]", "values": [
      {"measurement": "IC50", "setting": "[1]", "value": "> 50", "unit": "µM"},
      {"measurement": "IC50", "setting": "[2]", "value": "> 50", "unit": "µM"},
      {"measurement": "Activity", "setting": "[3]", "value": "Non-toxic"},
      {"measurement": "IC50", "setting": "[4]", "value": "> 50", "unit": "µM"}
    ]},
    {"smiles": "CC(=O)c1[nH]ccc1O[C@@H]1O[C@H](C)[C@@H](O[C@H]2OC[C@H](O)[C@H](O)[C@H]2O[C@@H]2O[C@H](C)[C@H](O)[C@H](O[C@@H]3O[C@@H](CO)[C@H](O)[C@H]3O)[C@H]2O)[C@H](O)[C@H]1O[C@@H]1O[C@H](C)[C@@H](O)[C@H](O)[C@H]1O", "note": "[ASTEBATHERIOSIDE B]", "values": [
      {"measurement": "Activity", "setting": "[3]", "value": "Non-toxic"},
      {"measurement": "IC50", "setting": "[4]", "value": 36.4, "unit": "µM"}
    ]},
    {"smiles": "CC(=O)c1[nH]ccc1O[C@@H]1O[C@H](C)[C@@H](O)[C@H](O)[C@H]1O[C@@H]1O[C@H](C)[C@@H](O)[C@H](O)[C@H]1O", "note": "[ASTEBATHERIOSIDE C]", "values": [
      {"measurement": "Activity", "setting": "[3]", "value": "Non-toxic"},
      {"measurement": "IC50", "setting": "[4]", "value": 31.6, "unit": "µM"}
    ]},
    {"smiles": "CC(=O)c1occc1O[C@@H]1O[C@H](C)[C@@H](O[C@@H]2O[C@H](C)[C@H](O)[C@H](O[C@@H]3O[C@H](C)[C@H](O)[C@H](O)[C@H]3O)[C@H]2O)[C@H](O)[C@H]1O[C@@H]1O[C@H](C)[C@@H](O)[C@H](O)[C@H]1O", "note": "[ASTEBATHERIOSIDE D]", "values": [
      {"measurement": "Activity", "setting": "[3]", "value": "Non-toxic"},
      {"measurement": "IC50", "setting": "[4]", "value": 22.8, "unit": "µM"}
    ]},
    {"smiles": "C[S+]([O-])c1ccc(-c2nc(-c3ccc(F)cc3)c(-c3ccncc3)[nH]2)cc1", "note": "(stereo not given) [SB-203580]", "values": [
      {"measurement": "IC50", "setting": "[4]", "value": 5, "unit": "µM"}
    ]}
  ]
}
